Measurements: patent US8980830B2 (priority 2007, dated 2015)
Values joined by “and” are separate entries in the source; they are usually repeats but may differ in a detail not shown here. Equal values may be shown once. Blank lines part the entries; values can stand above or below the compound they belong to. Bridge positions count the residues as written; N and C are the ends. Square brackets hold non-standard residues; d marks the D form. Ends that are not written are not given here. Peptide text beside a SMILES is read from it. * marks the point of attachment. ξ: configuration not given here. MCA = alpha-methylhydrocinnamic acid (2-methyl-3-phenylpropanoic acid); Abu(4-SO3H) = N[C@@H](CCS(=O)(=O)O)C(=O)O; PhLac = O=C(O)[C@@H](O)Cc1ccccc1; Aad = N[C@@H](CCCC(=O)O)C(=O)O; ξPhLac = O=C(O)C(O)Cc1ccccc1; Carboxymethyl = O=C(O)C*; CH2CH2COOH = O=C(O)CC*

Target: Glucagon Receptor (Homo sapiens, UniProt P47871)
Experiment: cAMP inhibition: antagonism of glucagon-induced cAMP at glucagon receptor
Assay type: cell-based
Design: expressed in transfected cells; host or cells: HEK293
Conditions: for cAMP pA2: Table 9; for IC50 (nM) (cAMP, inhibit 0.2 mM Glucagon): Table 12
[1] = Glucagon antagonism IC50 (nM, inhibit 0.2-0.8 nM glucagon), Table 18

Sequence of Glucagon Receptor (P47871 26-477): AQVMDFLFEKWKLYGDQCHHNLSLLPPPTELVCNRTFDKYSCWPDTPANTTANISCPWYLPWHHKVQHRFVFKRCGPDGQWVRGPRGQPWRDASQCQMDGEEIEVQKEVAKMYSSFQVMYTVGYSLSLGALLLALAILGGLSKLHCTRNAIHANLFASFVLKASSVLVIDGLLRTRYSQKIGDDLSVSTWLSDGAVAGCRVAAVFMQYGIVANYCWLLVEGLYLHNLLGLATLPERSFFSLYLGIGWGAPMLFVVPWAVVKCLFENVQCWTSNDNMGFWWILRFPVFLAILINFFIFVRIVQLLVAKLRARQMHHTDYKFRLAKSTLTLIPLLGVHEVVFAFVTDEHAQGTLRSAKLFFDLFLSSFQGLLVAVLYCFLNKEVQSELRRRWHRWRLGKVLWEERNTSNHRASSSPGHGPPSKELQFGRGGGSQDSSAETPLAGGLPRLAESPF

Compound: [PLA6, E9,E16K20(Lactam), C24(20 kDa)]G(6-29) ([PhLac]TSEYSKYLDERRAKDFVC(PEG 20 kDa)WLMNT; lactam 11-15)
Glucagon antagonism IC50(nM) (inhibit 0.2-0.8 nM glucagon): Not detect

Compound: CSCC[C@H](NC(=O)[C@H](CC(C)C)NC(=O)[C@H](Cc1c[nH]c2ccccc12)NC(=O)[C@H](CCC(N)=O)NC(=O)[C@@H](NC(=O)[C@H](Cc1ccccc1)NC(=O)[C@H](CC(=O)O)NC(=O)[C@H](CCC(N)=O)NC(=O)[C@H](C)NC(=O)[C@H](CCCNC(=N)N)NC(=O)[C@H](CCCNC(=N)N)NC(=O)[C@H](CO)NC(=O)[C@H](CC(=O)O)NC(=O)[C@H](CC(C)C)NC(=O)[C@H](Cc1ccc(O)cc1)NC(=O)[C@H](CCCCN)NC(=O)[C@H](CO)NC(=O)[C@H](Cc1ccc(O)cc1)NC(=O)[C@H](CSCC(=O)O)NC(=O)[C@H](CO)NC(=O)[C@@H](NC(=O)[C@@H](N)Cc1ccccc1)[C@@H](C)O)C(C)C)C(=O)N[C@@H](CC(N)=O)C(=O)N[C@H](C(N)=O)[C@@H](C)O [[(CSA-1)^9]Glucagon(aa6-29)-NH2, [C^9(SCH2COOH)]Glucagon(aa6-29)-NH2] (H-FTSC(Carboxymethyl)YSKYLDSRRAQDFVQWLMNT-NH2; N-terminus assumed)
cAMP pA2: 6.68 ± 1.05

Compound: CC(C)C[C@H](NC(=O)[C@H](Cc1ccc(O)cc1)NC(=O)[C@H](CCCCN)NC(=O)[C@H](CO)NC(=O)[C@H](Cc1ccc(O)cc1)NC(=O)[C@H](CCS(=O)(=O)O)NC(=O)[C@H](CO)NC(=O)[C@@H](NC(=O)[C@@H](NC(=O)CNC(=O)[C@H](CCC(N)=O)NC(=O)[C@@H](N)CO)[C@@H](C)O)[C@@H](C)O)C(=O)N[C@@H](CC(=O)O)C(=O)N[C@@H](CO)C(=O)N[C@@H](CCCNC(=N)N)C(=O)N[C@@H](CCCNC(=N)N)C(=O)N[C@@H](C)C(=O)N[C@@H](CCC(N)=O)C(=O)N[C@@H](CC(=O)O)C(=O)N[C@@H](Cc1ccccc1)C(=O)N[C@H](C(=O)N[C@@H](CCC(N)=O)C(=O)N[C@@H](Cc1ccccc1)C(=O)N[C@@H](CC(C)C)C(=O)N[C@@H](CC(C)C)C(=O)N[C@@H](CC(N)=O)C(=O)N[C@H](C(N)=O)[C@@H](C)O)C(C)C [[desHis^1, desPhe^6, hCys^9(SO3−), Phe^25, Leu^27] Glucagon-NH2] (H-SQGTTS[Abu(4-SO3H)]YSKYLDSRRAQDFVQFLLNT-NH2; N-terminus assumed)
glucagon antagonism, in words: some level of antagonism

Compound: CSCC[C@H](NC(=O)[C@H](CC(C)C)NC(=O)[C@H](Cc1c[nH]c2ccccc12)NC(=O)[C@H](CCC(N)=O)NC(=O)[C@@H](NC(=O)[C@H](Cc1ccccc1)NC(=O)[C@H](CC(=O)O)NC(=O)[C@@H]1CCCCNC(=O)CC[C@H](NC(=O)[C@H](CC(=O)O)NC(=O)[C@H](CC(C)C)NC(=O)[C@H](Cc2ccc(O)cc2)NC(=O)[C@H](CCCCN)NC(=O)[C@H](CO)NC(=O)[C@H](Cc2ccc(O)cc2)NC(=O)[C@H](CCC(=O)O)NC(=O)[C@H](CO)NC(=O)[C@@H](NC(=O)[C@@H](O)Cc2ccccc2)[C@@H](C)O)C(=O)N[C@@H](CCCNC(=N)N)C(=O)N[C@@H](CCCNC(=N)N)C(=O)N[C@@H](C)C(=O)N1)C(C)C)C(=O)N[C@@H](CC(N)=O)C(=O)N[C@H](C(=O)NCC(=O)N1CCC[C@H]1C(=O)N[C@@H](CO)C(=O)N[C@@H](CO)C(=O)NCC(=O)N[C@@H](C)C(=O)N1CCC[C@H]1C(=O)N1CCC[C@H]1C(=O)N1CCC[C@H]1C(=O)N[C@@H](CO)C(N)=O)[C@@H](C)O [[PLA6, E9, E16K20(Lactam)]]
IC50 (Glucagon antagonism IC50 (nM, inhibit 0.2-0.8 nM glucagon), Table 16, combined results of three assays): 20.5 ± 2.5 nM

Compound: [PLA6, K12E16(Lactam), D28,CEX-C40(20 kDa)]G(6-40) ([PhLac]TSDYSKYLDERRAQDFVQWLMDTGPSSGAPPPSC(PEG 20 kDa); lactam 7-11)
Glucagon antagonism IC50(nM) (inhibit 0.2-0.8 nM glucagon): Not antagonist (n = 1)

Compound: FTSDYSKYLDSRRAQDFVQWLMNT-NH2 [Glucagon(aa6-29)-NH2]
cAMP pA2: 6.94 ± 0.63

Compound: CSCC[C@H](NC(=O)[C@H](CC(C)C)NC(=O)[C@H](Cc1c[nH]c2ccccc12)NC(=O)[C@H](CCC(N)=O)NC(=O)[C@@H](NC(=O)[C@H](Cc1ccccc1)NC(=O)[C@H](CC(=O)O)NC(=O)[C@H](CCC(N)=O)NC(=O)[C@H](C)NC(=O)[C@H](CCCNC(=N)N)NC(=O)[C@H](CCCNC(=N)N)NC(=O)[C@H](CO)NC(=O)[C@H](CC(=O)O)NC(=O)[C@H](CC(C)C)NC(=O)[C@H](Cc1ccc(O)cc1)NC(=O)[C@H](CCCCN)NC(=O)[C@H](CO)NC(=O)[C@H](Cc1ccc(O)cc1)NC(=O)[C@H](CCC(=O)O)NC(=O)[C@H](CO)NC(=O)[C@@H](NC(=O)[C@H](Cc1ccccc1)OC(=O)[C@@H](NC(=O)CNC(=O)[C@H](CCC(N)=O)NC(=O)[C@H](CO)NC(=O)[C@@H](N)Cc1c[nH]cn1)[C@@H](C)O)[C@@H](C)O)C(C)C)C(=O)N[C@@H](CC(N)=O)C(=O)N[C@H](C(N)=O)[C@@H](C)O [[Thr5-O-PLA6,E9]Glucagon(1-29)] (H-HSQGT[PhLac]TSEYSKYLDSRRAQDFVQWLMNT-NH2; N-terminus assumed)
IC50 (Glucagon antagonism IC50(nM, inhibit 0.5nM G), Table 25): 14.2 ± 7.89 nM

Next, values leading:

cAMP pA2: 6.64 ± 0.29
Compound: CSCC[C@H](NC(=O)[C@H](CC(C)C)NC(=O)[C@H](Cc1c[nH]c2ccccc12)NC(=O)[C@H](CCC(N)=O)NC(=O)[C@@H](NC(=O)[C@H](Cc1ccccc1)NC(=O)[C@H](CC(=O)O)NC(=O)[C@H](CCC(N)=O)NC(=O)[C@H](C)NC(=O)[C@H](CCCNC(=N)N)NC(=O)[C@H](CCCNC(=N)N)NC(=O)[C@H](CO)NC(=O)[C@H](CC(=O)O)NC(=O)[C@H](CC(C)C)NC(=O)[C@H](Cc1ccc(O)cc1)NC(=O)[C@H](CCCCN)NC(=O)[C@H](CO)NC(=O)[C@H](Cc1ccc(O)cc1)NC(=O)[C@H](CSCCC(=O)O)NC(=O)[C@H](CO)NC(=O)[C@@H](NC(=O)[C@@H](N)Cc1ccccc1)[C@@H](C)O)C(C)C)C(=O)N[C@@H](CC(N)=O)C(=O)N[C@H](C(N)=O)[C@@H](C)O [[(CSA-2)^9]Glucagon(aa6-29)-NH2, [C^9(SCH2CH2COOH)]Glucagon(aa6-29)-NH2] (H-FTSC(CH2CH2COOH)YSKYLDSRRAQDFVQWLMNT-NH2; N-terminus assumed)

IC50 [1]: 11.7 nM and 73.5 nM
Compound: CC[C@H](C)[C@H](NC(=O)[C@H](Cc1ccccc1)NC(=O)[C@H](CCC(=O)O)NC(=O)[C@@H]1CCCCNC(=O)CC[C@H](NC(=O)[C@H](CC(=O)O)NC(=O)[C@H](CC(C)C)NC(=O)[C@H](Cc2ccc(O)cc2)NC(=O)[C@H](CCCCN)NC(=O)[C@H](CO)NC(=O)[C@H](Cc2ccc(O)cc2)NC(=O)[C@H](CC(=O)O)NC(=O)[C@H](CO)NC(=O)[C@@H](NC(=O)C(O)Cc2ccccc2)[C@@H](C)O)C(=O)N[C@@H](CCC(N)=O)C(=O)N[C@@H](C)C(=O)N[C@@H](C)C(=O)N1)C(=O)N[C@@H](C)C(=O)N[C@@H](Cc1c[nH]c2ccccc12)C(=O)N[C@@H](CC(C)C)C(=O)N[C@@H](CCSC)C(=O)N[C@@H](CC(=O)O)C(=O)N[C@H](C(N)=O)[C@@H](C)O (stereo partly drawn) [[PLA6, E16K20(lactam), GLP(23-32)]G(6-29)] (H-[ξPhLac]TSDYSKYLDEQAAKEFIAWLMDT-NH2; lactam 11-15)

IC50 (nM) (cAMP, inhibit 0.2 mM Glucagon): no antagonism
Compound: [MCA^6, E^9, C^24(20kDaPEG)]Glucagon(aa6-29)-NH2 ([MCA]TSEYSKYLDSRRAQDFVC(PEG 20 kDa)WLMNT-NH2)

IC50 (nM) (cAMP, inhibit 0.2 mM Glucagon): no antagonism
Compound: [PLA^6, C^8(1.2kDaPEG), E^9]Glucagon(aa6-29)-NH2 ([PhLac]TC(PEG 1.2 kDa)EYSKYLDSRRAQDFVQWLMNT-NH2)

cAMP pA2: 6.27 ± 0.11
Compound: CSCC[C@H](NC(=O)[C@H](CC(C)C)NC(=O)[C@H](Cc1c[nH]c2ccccc12)NC(=O)[C@H](CCC(N)=O)NC(=O)[C@@H](NC(=O)[C@H](Cc1ccccc1)NC(=O)[C@H](CC(=O)O)NC(=O)[C@H](CCC(N)=O)NC(=O)[C@H](C)NC(=O)[C@H](CCCNC(=N)N)NC(=O)[C@H](CCCNC(=N)N)NC(=O)[C@H](CO)NC(=O)[C@H](CC(=O)O)NC(=O)[C@H](CC(C)C)NC(=O)[C@H](Cc1ccc(O)cc1)NC(=O)[C@H](CCCCN)NC(=O)[C@H](CO)NC(=O)[C@H](Cc1ccc(O)cc1)NC(=O)[C@H](CCCC(=O)O)NC(=O)[C@H](CO)NC(=O)[C@@H](NC(=O)[C@@H](N)Cc1ccccc1)[C@@H](C)O)C(C)C)C(=O)N[C@@H](CC(N)=O)C(=O)N[C@H](C(N)=O)[C@@H](C)O [[hGlu^9]Glucagon(aa6-29)-NH2] (H-FTS[Aad]YSKYLDSRRAQDFVQWLMNT-NH2; N-terminus assumed)

IC50 [1]: 63.2 ± 2.3 nM
Compound: CSCC[C@H](NC(=O)[C@H](CC(C)C)NC(=O)[C@H](Cc1c[nH]c2ccccc12)NC(=O)[C@H](CCC(N)=O)NC(=O)[C@@H](NC(=O)[C@H](Cc1ccccc1)NC(=O)[C@H](CC(=O)O)NC(=O)[C@@H]1CCCCNC(=O)CC[C@H](NC(=O)[C@H](CC(=O)O)NC(=O)[C@H](CC(C)C)NC(=O)[C@H](Cc2ccc(O)cc2)NC(=O)[C@H](CCCCN)NC(=O)[C@H](CO)NC(=O)[C@H](Cc2ccc(O)cc2)NC(=O)[C@H](CCC(=O)O)NC(=O)[C@H](CO)NC(=O)[C@@H](NC(=O)[C@H](Cc2ccccc2)NC(=O)[C@@H](NC(=O)CNC(=O)[C@H](CCC(=O)O)NC(=O)[C@H](C)N)[C@@H](C)O)[C@@H](C)O)C(=O)N[C@@H](CCCNC(=N)N)C(=O)N[C@@H](CCCNC(=N)N)C(=O)N[C@@H](C)C(=O)N1)C(C)C)C(=O)N[C@@H](CC(=O)O)C(=O)N[C@H](C(N)=O)[C@@H](C)O [[A2E3, E16K20(Lactam),D28]G(2 ~ 29)]

IC50 [1]: 423 nM | character of antagonism (partial antagonist, wrapped cell) (Table 18): partial
Compound: CC[C@H](C)[C@H](NC(=O)[C@H](Cc1ccccc1)NC(=O)[C@H](CCC(=O)O)NC(=O)[C@@H]1CCCCNC(=O)CC[C@H](NC(=O)[C@H](CC(=O)O)NC(=O)[C@H](CC(C)C)NC(=O)[C@H](Cc2ccc(O)cc2)NC(=O)[C@H](CCCCN)NC(=O)[C@H](CO)NC(=O)[C@H](Cc2ccc(O)cc2)NC(=O)[C@H](CCC(=O)O)NC(=O)[C@H](CO)NC(=O)[C@@H](NC(=O)[C@H](Cc2ccccc2)NC(=O)[C@@H](NC(=O)CNC(=O)[C@H](CCC(=O)O)NC(=O)[C@H](C)N)[C@@H](C)O)[C@@H](C)O)C(=O)N[C@@H](CCC(N)=O)C(=O)N[C@@H](C)C(=O)N[C@@H](C)C(=O)N1)C(=O)N[C@@H](C)C(=O)N[C@@H](Cc1c[nH]c2ccccc12)C(=O)N[C@@H](CC(C)C)C(=O)N[C@@H](CCSC)C(=O)N[C@@H](CC(=O)O)C(=O)N[C@H](C(N)=O)[C@@H](C)O [[A2E3, E9, E16K20(Lactam), GLP(23-32)]G(2-29)] (H-AEGTFTSEYSKYLDEQAAKEFIAWLMDT-NH2; lactam 15-19; N-terminus assumed)
